Values of other authors, collected in PMC5963526 (Biochimica et biophysica acta, 2018).

Experiments:
[1] = tested on: retina
[2] = tested on: rats

| Structure (SMILES) | protection of the retina from light damage [1] | protection against LIRD [2] |
| --- | --- | --- |
| CC1=C(/C=C/C(C)=C/C=C/C(C)=C\C(=O)O)C(C)(C)CCC1 [13-cis-retinoic acid] | protects the retina from light damage | – |
| CC(C)(C)[N+]([O-])=Cc1ccccc1 [PBN, a-phenyl-N-tert-butylnitrone] | – | complete protection |
